{
  "source": "patent US20200222564A1",
  "about": "“Compound Amphiphilic Peptide Nanomicelle, Preparation and Use Thereof” (Tianjin University, priority 2019, published 2020)",
  "system": "CNE-2Z cells",
  "experiment": "CCK-8 cytotoxicity in CNE-2Z cells",
  "format": "cell-based",
  "settings": "0-100 μg/mL, 24 h in the dark",
  "method": "First of all, the designed concentration (0, 20, 40, 60, 80 and 100 μg/mL) solution of nanomicelle and rose bengal were prepared with 1640 medium. CNE-2Z cells were seeded into a 96-well player at a density of 2×10^4 cells per well. Each sample with a certain concentration was added to 5 wells. The cytotoxicity of the pure rose bengal and the nanomicelle solution at different concentrations was compared. After culturing for 48 hours, the cells were grown to 80%, and the medium containing different volumes of nanomicelle and rose bengal solution was added instead of the original medium according to the experimental group setting. After an additional incubation for 24 h at 37° C. in the dark, fresh medium (100 μL) together with CCK-8 (10 μL) was added followed by […] on a microplate reader at a wavelength of 450 nm. Cell viability was calculated according to the formula, with the maximum and minimum of OD values excluded:\nCell Viability=average of (OD−ODblk)/average of (OD0−ODblk)×100%",
  "data": [
    {"smiles": "O=C([O-])c1c(Cl)c(Cl)c(Cl)c(Cl)c1-c1c2cc(I)c(=O)c(I)c-2oc2c(I)c([O-])c(I)cc12.[Na+].[Na+]", "note": "[Rose Bengal]", "values": [
      {"measurement": "toxicity to CNE-2Z cells", "result": "less toxic"}
    ]}
  ]
}
